According to publication PMC3531619 (Angewandte Chemie (International Ed. in English), 2012):
Where no end group is shown, it is not given here. [ ]: non-standard residue; d: D form. Bpa = N[C@@H](Cc1ccc(C(=O)c2ccccc2)cc1)C(=O)O

What was measured:
PP2A = assay: Streptavidin pull-down of PP2A with biotinylated peptides from cell lysates; type: binding, human; settings: U2OS cell lysates, streptavidin beads, immunoblot
PP1 = assay: Streptavidin pull-down of PP1 with biotinylated peptides from cell lysates; type: binding, human; settings: HEK293 and U2OS cell lysates, streptavidin-coated Sepharose beads, immunoblot
U2OS cells = assay: Cell viability assay; type: cell-based, human; settings: conditions of the in-cell experiments

Row | Substance | Co-precipitation of PP2A in pull-down (PP2A) | Co-sedimentation of PP1 in pull-down (PP1) | Cytotoxicity under the experimental conditions (U2OS cells)
1 | RRKRPKRKRKNARATAAEAAEII [PDP2m] | co-precipitated neither PP1 nor PP2A | co-precipitated neither PP1 nor PP2A | –
2 | RRKRPKRKRKNARATA[Bpa]EAAEII [PDP3m] | – | – | neither PDP3 nor PDP3m showed any cytotoxicity
